# Literature values as cited in patent US10716831B2, “Methods for inhibiting infectious peritonitis” (priority 2014, dated 2020).
# How the values were obtained:
# [1] = in vivo
# Pseudomonas aeruginosa = conditions: controlled clinical trials, orally or intravenously administered, maximum
# [2] = not given; remark: listed apart in the source
# [3] = test system: polymorphonuclear leukocytes
# [4] = test system: strains of organisms from the susceptible genera
# infectious peritonitis = conditions: combination with imipenem; Pachón-Ibáñez et al 2011
# [5] = test system: Staphylococcus, Streptococcus, Neisseria, Escherichia, Proteus, Serratia, Salmonella, Shigella, Pseudomonas, Haemophilus and Vibrio; conditions: aerobic genera
# [6] = test system: Klebsiella and Enterobacter spp.
# [7] = test system: Peptostreptococcus (including Peptoniphilus, Finegoldia and Anaerococcus) and Fusobacterium; conditions: anaerobic genera
# [8] = test system: bacteria of the B. fragilis group
# [9] = intraperitoneal compared with intravenous administration; Tobudic et al 2012
# [10] = test system: resistant bacterial strains; conditions: controlled clinical trials, orally or intravenously administered; overall
# monocytes = conditions: in vitro; Volk et al 1991
# [11] = test system: cecal ligation and puncture; conditions: mice, subcutaneous injection; Gennari et al 1994
# bacterial peritonitis = conditions: mice, intraperitoneal for 5 days; Austin et al 1995
# [12] = test system: non-traumatic generalized abdominal sepsis; conditions: subcutaneous, with systemic antibiotics; Orozco et al 2006
# [13] = third and last day of treatment
# peritoneal macrophages = conditions: intraperitoneal; Selgas et al 1996
# [14] = test system: peritonitis induced by cecal ligation and puncture; conditions: rats, systemic; Toda et al 1994
# fecal peritonitis = conditions: mice, prophylactic administration; Barsig et al 1996
molecule,measurement,setting,value
C[C@@H]1O[C@@H]1P(=O)(O)O [Fosfomycin disodium],solubility in water,,highly soluble in water
same,pH of 5% solution,,9.0-10.5
same,local or oral tolerability,[1],locally irritant if un-neutralized
C[C@@H]1O[C@@H]1P(=O)(O)O.NC(CO)(CO)CO [Fosfomycin trometamol],solubility in water,,highly soluble in water
same,pH of 5% solution,,3.5-5.5
same,local or oral tolerability,[1],well tolerated when given orally
"C[C@@H]1O[C@@H]1P(=O)(O)O [fosfomycin, [(2R,3S)-3-methyloxiran-2-yl]phosphonic acid]",appearance of resistant bacterial strains,Pseudomonas aeruginosa,15%
same,eosinophilia,[2]; Gobernado 2003,0.2%
same,transient rashes (allergy),[2]; Gobernado 2003,0.3 % of cases
same,transiently raised liver enzymes,[2]; Gobernado 2003,0.3 % of cases
same,toxicity to mammalian cells and organs,[2]; fosfomycin disodium at intravenous doses of up to 0.5 g/kg/day in human patients,remarkably non-toxic
same,concentration in polymorphonuclear leukocytes relative to extracellular fluid,[3],twice those of the extracellular fluid
same,tested strains showing synergistic effect,"[4]; early studies, various antibiotic combinations",70-100%
same,synergy rates,[4]; subsequent more extensive studies,36-74%
same,synergy and in-vivo efficacy with imipenem,infectious peritonitis,showed synergy and high in-vivo efficacy
same,antibacterial activity,[5],highly active
same,antibacterial activity,[6],active
same,antibacterial activity,[7],active
same,antibacterial activity,[8],not against
same,intraperitoneal levels,[9],superior intraperitoneal levels
same,appearance of resistant bacterial strains,[10],3.0%
GM-CSF: cytokine of the colony-stimulating factor family; mature human protein SEQ ID NO: 2,loss of HLA-DR antigen expression to <20%,monocytes,reversed
same,mortality,[11],significantly reduced
same,survival,bacterial peritonitis,improved survival
same,rate of infectious complications and length of hospitalization,[12],reduced
same,minor flu-like symptoms,[13],2 of 8
same,peritoneal macrophage numbers,peritoneal macrophages,large increase
same,peritoneal transport of water or solutes,peritoneal macrophages,did not affect
"recombinant murine GM-CSF: recombinant murine GM-CSF used in rat and mouse peritonitis studies (protein, UniProt P01587 18-141, looked up) Granulocyte-macrophage …: APTRSPITVTRPWKHVEAIKEALNLLDDMPVTLNEEVEVVSNEFSFKKLTCVQTRLKIFEQGLRGNFTKLKGALNMTASYYQTYCPPTPETDCETQVTTYADFIDSLKTFLTDIPFECKKPGQK",survival rate,[14],did not improve
same,leukocyte numbers and protection,fecal peritonitis,neither augmented leukocyte numbers nor protected mice
